Test results as given in patent publication US4863918A, “Enamine quaternary compounds, methods of making and their use as muscle relaxants” (BOC, Inc., priority 1988, dated 1989).

Key:
[1] = Cardiovascular change (HR, BP) at equi-efficacious dose in dogs; format: in vivo; conditions: dog
[2] = Cardiovascular change (HR, BP) at equi-efficacious dose in rabbits; format: in vivo; conditions: rabbit
paw twitch [3] = test: Twitch depression (muscle relaxant effect) in anesthetized dogs; dog paw twitch; format: in vivo, mongrel dogs; conditions: Table V; for ED90: Canis lupus familiaris, iv, read-out: Equi-efficacious dose; for Duration (DURAT.) / Onset / Recovery (RECOV.): dog, at equi-efficacious dose
Description: (§1) Mongrel dogs were injected with 50 mg/kg of pentobarbital until the onset of anesthesia as determined by the eyeblink reflex test. The injectable solutions prepared above were administered intravenously to the anesthesized mongrel dogs and measurements were made of the muscle relaxant effect including maximum twitch depression, onset, duration and recovery time in a clinically known manner. Each of the subjects were compared with a control animal receiving an injection of distilled water.

paw twitch [4] = test: Twitch depression (muscle relaxant effect) in anesthetized rabbits; rabbit paw twitch; format: in vivo, New Zealand White rabbits; conditions: Table IV; for ED90: Oryctolagus cuniculus, read-out: Equi-efficacious dose; for Duration (DURAT.) / Onset / Recovery (RECOV.): rabbit, at equi-efficacious dose
Description: [The procedure below names another organism; the source lists this organism under the same test.] as §1
The same compound of the present invention as in
A number of compounds in accordance with the present invention were tested for their neuromuscular blockade Properties. Specifically, the acid addition salts of the compounds were dissolved in sterile water for injection.

neuromuscular blockade = conditions: background, in words; cited from earlier work
[5] = Table V, at equi-efficacious dose
[6] = Table IV, at equi-efficacious dose
[7] = depolarizer, based on twitch recovery not to-f

SMILES | BP % [1, 5] | HR % [1, 5] | BP % [2, 6] | HR % [2, 6] | ED90 (paw twitch [3]; dog paw twitch) | Duration (DURAT.) (paw twitch [3]) | Onset (paw twitch [3]) | Recovery (RECOV.) (paw twitch [3]) | ED90 (paw twitch [4]; rabbit paw twitch) | Duration (DURAT.) (paw twitch [4]) | Onset (paw twitch [4]) | Recovery (RECOV.) (paw twitch [4]) | duration of paralysis and recovery (neuromuscular blockade) | other results
CC(=O)O[C@H]1C[C@@H]2CC[C@@H]3[C@H](CC[C@@]4(C)[C@H]3C[C@H]([N+]3(C)CCCCC3)[C@@H]4OC(C)=O)[C@@]2(C)C[C@@H]1N1CCCCC1 [vecuronium] | 2.3% | 3.5% | 1.1% | -1.9% | 0.019 mg/kg | 26.6 min | 171.0 s | 21.8 min | 0.019 mg/kg | 16.8 min | 97.3 s | 9.6 min | – | –
COc1cc2c3cc1Oc1cc(ccc1O)C[C@@H]1c4c(cc(OC)c(O)c4Oc4ccc(cc4)C[C@@H]3N(C)CC2)CC[N+]1(C)C [d-tubocurarine] | -25.8% | 8.7% | 4.8% | -0.3% | – | 60.0 min | 150.8 s | 55.3 min | – | 37.3 min | 85.0 s | 34.8 min | maintain paralysis for an undesirably long time and the recovery period is slow | Equi-efficacious dose (paw twitch [3]; dog paw twitch): 0.254 mg/kg; Equi-efficacious dose (paw twitch [4]; rabbit paw twitch): 0.229 mg/kg
CC(=O)O[C@H]1C[C@@H]2CC[C@@H]3[C@H](CC[C@@]4(C)[C@H]3C[C@H]([N+]3(C)CCCCC3)[C@@H]4OC(C)=O)[C@@]2(C)C[C@@H]1[N+]1(C)CCCCC1 [pancuronium] | -1.8% | 0.2% | 2.7% | 0.0% | 0.013 mg/kg | 45.7 min | 169.0 s | 35.6 min | 0.022 mg/kg | 32.5 min | 147.5 s | 17.4 min | maintain paralysis for an undesirably long time and the recovery period is slow | –
C[N+](C)(C)CCOC(=O)CCC(=O)OCC[N+](C)(C)C [succinylcholine] | 25.7% | 34.9% | -4.1% | 0.2% | 0.043 mg/kg | – | 98.9 s | – | 0.447 mg/kg | – | 39.4 s | – | – | reversibility by anticholinesterase drugs (neuromuscular blockade): not easily reversed by anticholinesterase drugs; Duration (DURAT.) (paw twitch [3]; [7]): 8.8 min; Recovery (RECOV.) (paw twitch [3]; [7]): 5.4 min; Duration (DURAT.) (paw twitch [4]; [7]): 18.6 min; Recovery (RECOV.) (paw twitch [4]; [7]): 18.6 min
COc1ccc(CC2c3cc(OC)c(OC)cc3CC[N+]2(C)CCC(=O)OCCCCCOC(=O)CC[N+]2(C)CCc3cc(OC)c(OC)cc3C2Cc2ccc(OC)c(OC)c2)cc1OC (stereo not drawn) [atracurium] | – | – | – | – | 0.086 mg/kg | 27.9 min | 159.4 s | 20.4 min | 0.046 mg/kg | 14.3 min | 126.9 s | 12.2 min | – | BP % ([1]; in vivo): 0.3%; HR % ([1]; in vivo): 3.3%; BP % ([2]; in vivo): -3.4%; HR % ([2]; in vivo): -1.0%
COc1cc2c(cc1OC)C(Cc1cc(OC)c(OC)c(OC)c1)[N+](C)(CCCOC(=O)CCC=CCCC(=O)OCCC[N+]1(C)CCc3cc(OC)c(OC)cc3C1Cc1cc(OC)c(OC)c(OC)c1)CC2 (stereo not drawn) [BW1090] | -3.1% | 0.7% | 1.2% | -0.4% | 0.39 mg/kg | 75.0 min | 195.5 s | 70.3 min | 0.504 mg/kg | 8.7 min | 48.5 s | 7.3 min | – | –
